As usually defined, the LD50 is the dose expected to kill half of the subjects tested. Higher therefore signals lower toxicity.

The values that follow come from patent publication US5158950A, “1,3-dithiol-2-ylidene derivatives and process for the preparation thereof” (Yuhan Corporation, Ltd., priority 1987, dated 1992).

Data set [1] concerns serum ALT activity induced by CCl4. As to the kind of experiment: Protective effect against acute hepatic damage induced by carbon tetrachloride (serum ALT). The format is in vivo. The conditions noted are these: Mus musculus; mice, 50 mg/kg oral, 6 h before CCl4 (50 ul/kg oral); ALT 24 h after CCl4; read-out: Inhibitory (%): protective effect against increase of serum ALT activity induced by CCl4. How it is done: Principle; Carbon tetrachloride (CCl4) is a well-known hepatotoxic agent, thus widely used to produce experimental animal models for screening the potential drugs acting upon hepatic diseases. In this experiment test compounds were administered to mice prior to treatment with CCl4. 24 Hours after the CCl4 treatment, the animals were sacrificed and serum alanine aminotransferase (ALT) levels were determined. The hepatoprotective effect of a test compound was evaluated by the suppressive action against the increase of serum ALT induced by CCl4.
Method; The experimental animals were divided into normal, CCl4 treated and test compound treated groups. Each group consisted of 8 mice with body weight of 20-25 grams. The test compounds were suspended in 0.2% sodium carboxy methyl cellulose (CMC-Na) solution and administered orally at the dose of 50 mg/125 ml/kg body weight. Only the vehicle, 0.2% CMC-Na solution, was administered to the normal and to the CCl4 treated group instead of the test compound suspension. 6 Hours after the drug administration, the CCl4 solution in olive oil was administered orally to the CCl4 treated- and the test compound treated group at the dose of 50 ul/25 ml olive oil/kg body weight. The normal group was administered olive oil only at the same dose. 24 Hours after the CCl4 administration, blood samples were collected from the orbital sinus of the animals and the sera were obtained by centrifugation The serum ALT activities were monitored using an automatic blood analyzer (Gilford, SBA 300). The hepatoprotective effect of the test compounds was expressed by the suppressive percentage against the increase of serum ALT level induced by CCl4 calculated by the following formula; [formula]

Data set [2] in a line: Acute oral toxicity, median lethal dose (LD50). To be noted: mouse, in vivo, male ICR mice, deaths counted for 14 days. How it is done:
Each test compound was suspended in a 0.2% CMC-Na solution in various concentrations to make test suspension. The test suspensions were administered orally to male ICR mice (10 in each group) at various doses. The number of dead mice was counted for 14 days and the value of mediam lethal dose (LD50, g/kg) was calculated by the Hitchifield-Wilcoxon method.

As to `CC(=O)Oc1ccccc1NC(=O)C(C(=O)OC(C)C)=C1SC=CS1` [24(c), Isopropyl 2-(1,3-dithiol-2ylidene)-2-[N-(2-acetoxyphenyl)carbamoyl]acetate], in data set [1], the inhibition in vivo at 50 mg/kg was 22.8%. On the same count and under the same terms, as for `CC(C)OC(=O)C(C(N)=O)=C1SC=CS1` [Example 9, Isopropyl 2-(1,3-dithiol-2-ylidene)-2-carbamoylacetate], the figure is 65.5%. Take `CC(C)OC(=O)C(C(=O)Nc1ncccn1)=C1SC=CS1` [21(d), Isopropyl 2-1,3-dithiol-2-ylidene)-2-(N-pyrimidin-2-ylcarbamoyl) acetate]: the inhibition in vivo at 50 mg/kg in data set [1] worked out at 99.8%. The compound further came in with a median lethal dose (LD50) at 336 h in data set [2] of 3200 mg/kg.

For `Cc1ccc(NC(=O)C(C(=O)OC(C)C)=C2SC=CS2)cc1` [17(e), Isopropyl 2-(1,3-dithiol-2-ylidene)-2-[N-(4-methylphenyl)carbamoyl]acetate], the inhibition in vivo at 50 mg/kg in data set [1] came to 100%. The same measure, in the same setting: in the case of `CC(C)OC(=O)C(C(=O)Nc1cccc(C(F)(F)F)c1)=C1SC=CS1` [17(t), Isopropyl 2-(1,3-dithiol-2-ylidene)-2-[N-(3-trifluoromethylphenyl)carbamoyl]acetate] it was 96%. Still for that read-out and setting: in the case of `Cc1cccc(NC(=O)C(C(=O)OC(C)C)=C2SC=CS2)c1C` [17(f), Isopropyl 2-(1,3-dithiol-2-ylidene)-2-[N-(2,3-dimethylphenyl)carbamoyl]acetate] it was 92%. Take `CC(C)OC(=O)C(C(=O)Nc1ccccc1C(=O)O)=C1SC=CS1` [25(a), Isopropyl 2-(1,3-dithiol-2-ylidene)-2-[N-(2-carboxyphenyl)carbamoyl]acetate]: the inhibition in vivo at 50 mg/kg in data set [1] is 74%. Also, the LD50 at 336 h in data set [2] amounted to 1200 mg/kg. As to `CC(C)OC(=O)C(C(=O)NC1CCCCC1)=C1SC=CS1` [Example 12, Isopropyl 2-(1,3-dithiol-2-ylidene)-2-(N-cyclohexylcarbamoyl)acetate], the inhibition in vivo at 50 mg/kg in data set [1] turned out to be 98%. Take `CC(=O)Nc1ccc(NC(=O)C(C(=O)OC(C)C)=C2SC=CS2)cc1` [17(q), Isopropyl 2-(1,3-dithiol-2-ylidene)-2-[N-(4-acetamidophenyl)carbamoyl]acetate]: the inhibition in vivo at 50 mg/kg in data set [1] was 78.2%. The same compound showed a median lethal dose (LD50) at 336 h in data set [2] of over 5000 mg/kg. Turning to `CC(C)OC(=O)C(C(=O)n1ccnc1)=C1SC=CS1` [26(d), Isopropyl 2-(1,3-dithiol-2-ylidene)-2-(1-imidazolylcarbaony)acetate], in data set [1], the inhibition in vivo at 50 mg/kg is 98%. With `CC(C)OC(=O)C(C(=O)Nc1cccc(Cl)c1)=C1SC=CS1` [17(h), Isopropyl 2-(1,3-dithiol-2-ylidene)-2-[N-(3-chlorophenyl)carbamoyl]acetate], the inhibition in vivo at 50 mg/kg in data set [1] worked out at 97.5%. Further, in data set [2], the LD50 at 336 h was over 5000 mg/kg. As for `CC(C)OC(=O)C(C(=O)Nc1ccc(F)cc1)=C1SC=CS1` [17(i), Isopropyl 2-(1,3-dithiol-2-ylidene)-2-[N-(4-fluorophenyl)carbamoyl]acetate], the inhibition in vivo at 50 mg/kg in data set [1] turned out to be 89.8%. This compound also had a median lethal dose (LD50) at 336 h in data set [2] of over 5000 mg/kg. As to `CC(C)OC(=O)C(C(=O)Nc1cccc(O)c1)=C1SC=CS1` [22(c), Isopropyl 2-(1,3-dithiol-2-ylidene)-2-[N-(3-hydroxyphenyl)carbamoyl]acetate], the inhibition in vivo at 50 mg/kg in data set [1] turned out to be 93%. Further, the median lethal dose (LD50) at 336 h in data set [2] is over 5000 mg/kg.

Consider `CC(C)OC(=O)C(C(=O)NC1=NCCS1)=C1SC=CS1` [22(e), Isopropyl 2-(1,3-dithiol-2-ylidene)-2-[N-(2-thiazolin-2-yl)carbamoyl]acetate], for which the inhibition in vivo at 50 mg/kg in data set [1] came to 99.4%. For the same compound, the LD50 at 336 h in data set [2] is over 5000 mg/kg. Regarding `CC(C)OC(=O)C(C(=O)N(C)c1ccccc1)=C1SC=CS1` [Example 16, Isopropyl 2-(1,3-dithiol-2-ylidene)-2-(N-methyl-N-phenylcarbamoyl)acetate], in data set [1], the inhibition in vivo at 50 mg/kg was 47.9%. For the compound `CC(C)OC(=O)C(C(=O)Nc1ccnc(O)n1)=C1SC=CS1` [18(m)], the inhibition in vivo at 50 mg/kg in data set [1] amounted to 12.8%. For the same compound, the LD50 at 336 h in data set [2] was over 5000 mg/kg. With `CC(=O)Oc1cccc(NC(=O)C(C(=O)OC(C)C)=C2SC=CS2)c1` [24(b)], in data set [1], the inhibition in vivo at 50 mg/kg came out at 98%. The compound also had a median lethal dose (LD50) at 336 h in data set [2] of over 5000 mg/kg. For `COc1ccc(NC(=O)C(C(=O)OC(C)C)=C2SC=CS2)cc1` [17(l), Isopropyl 2-(1,3-dithiol-2-ylidene)-2-[N-(4-methoxyphenyl)carbamoyl]acetate], in data set [1], the inhibition in vivo at 50 mg/kg was 99.6%. The compound further gave an LD50 at 336 h in data set [2] of over 5000 mg/kg. For `CC(C)OC(=O)C(C(=O)N1CCN(C)CC1)=C1SC=CS1` [26(b), Isopropyl 2-(1,3-dithiol-2-ylidene)-2-[(4-methylpiperazin-1-yl)carbonyl]acetate], the inhibition in vivo at 50 mg/kg in data set [1] was found to be 46%.

With `CC(C)NC(=O)C(C(=O)OC(C)C)=C1SC=CS1` [Example 11, Isopropyl 2-(1,3-dithiol-2-ylidene)-2-(N-isopropylcarbamoyl)acetate], in data set [1], the inhibition in vivo at 50 mg/kg was 49.4%. Besides, the LD50 at 336 h in data set [2] amounted to 2600 mg/kg. Turning to `CC(C)OC(=O)C(C(=O)N1CCOCC1)=C1SC=CS1` [26(a), Isopropyl 2-(1,3-dithiol-2-ylidene)-2-(4-morpholinylcarbonyl)acetate], in data set [1], the inhibition in vivo at 50 mg/kg was 66.5%.

`Cc1nc(NC(=O)C(C(=O)OC(C)C)=C2SC=CS2)sc1C` [19(f), Isopropyl 2-(1,3-dithiol-2-ylidene)-2-[N-(4,5-dimethyl-2-thiazolyl)carbamoyl]acetate]: the inhibition in vivo at 50 mg/kg in data set [1] worked out at 91.4%. Moreover, the 50% lethal dose (LD50) at 336 h in data set [2] was over 5000 mg/kg. Regarding `CCN(CC)C(=O)C(C(=O)OC(C)C)=C1SC=CS1` [Example 13, Isopropyl 2-(1,3-dithiol-2-ylidene)-2-(N,N-diethylcarbamoyl) acetate], the inhibition in vivo at 50 mg/kg in data set [1] is 55.6%.

Turning to `CNC(=O)C(C(=O)OC(C)C)=C1SC=CS1` [Example 10, Isopropyl 2-(1,3-dithiol-2-ylidene)-2-(N-methylcarbamoyl) acetate], the inhibition in vivo at 50 mg/kg in data set [1] is 92%. The same measure, in the same setting: as for `CC(=O)Nc1cccc(NC(=O)C(C(=O)OC(C)C)=C2SC=CS2)c1` [17(r), Isopropyl 2-(1,3-dithiol-2-ylidene)-2-[N-(3-acetamidophenyl)carbamoyl]acetate], the figure is 46.6%. `CC(C)OC(=O)C(C(=O)Nc1ccc(C(F)(F)F)cc1)=C1SC=CS1` [17(s), Isopropyl 2-(1,3-dithiol-2-ylidene)-2-[N-(4-trifluoromethylphenyl)carbamoyl]acetate]: the inhibition in vivo at 50 mg/kg in data set [1] was determined as 100%. In data set [2], this compound gave a 50% lethal dose (LD50) at 336 h of over 4000 mg/kg. Take `CC(C)OC(=O)C(C(=O)N1CCCC1C(=O)O)=C1SC=CS1` (stereo not shown) [Example 15, Isopropyl 2-(1,3-dithiol-2-ylidene)-2-[(2-carboxypyrrolidin-1-yl)carbonyl]acetate]: in data set [1], the inhibition in vivo at 50 mg/kg was 14%. The same measure, in the same setting: in the case of `CC(=O)Oc1ccc(NC(=O)C(C(=O)OC(C)C)=C2SC=CS2)cc1` [24(a), Isopropyl 2-(1,3-dithiol-2-ylidene)-2-[N-(4-acetoxyphenyl)carbamoyl]acetate] it was 102%. Take `CC(C)OC(=O)C(C(=O)Nc1ccc(Cl)cc1)=C1SC=CS1` [17(g), Isopropyl 2-(1,3-dithiol-2-ylidene)-2-[N-(4-chlorophenyl)carbamoyl]acetate]: the inhibition in vivo at 50 mg/kg in data set [1] is 81.5%. Further, the LD50 at 336 h in data set [2] is over 5000 mg/kg. For `CC(C)OC(=O)C(C(=O)Nc1nc2ccccc2s1)=C1SC=CS1` [18(n), Isopropyl 2-(1,3-dithiol-2-ylidene)-2-[N-(2-benzothiazolyl)carbamoyl]acetate], in that order: 15.2% and over 5000 mg/kg.

`CC(C)OC(=O)C(C(=O)Nc1ccccc1F)=C1SC=CS1` [17(j), Isopropyl 2-(1,3-dithiol-2-ylidene)-2-[N-(2-fluorophenyl)carbamoyl]acetate] came in with an LD50 at 336 h in data set [2] of over 5000 mg/kg. With `CC(C)OC(=O)C(C(=O)N1CCCC1)=C1SC=CS1` [26(c), Isopropyl 2-(1,3-dithiol-2-ylidene)-2-(1-pryrrolidinylcarbaonyl) acetate], the inhibition in vivo at 50 mg/kg in data set [1] was found to be 90.5%. The same measure, in the same setting: as for `CC(C)OC(=O)C(C(=O)Nc1ccccc1O)=C1SC=CS1` [22(d), Isopropyl 2-(1,3-dithiol-2-ylidene)-2-[N-(2-hydroxyphenyl)carbamoyl]acetate], the figure is 16.2%; as for `COc1cccc(NC(=O)C(C(=O)OC(C)C)=C2SC=CS2)c1` [Example 17(o), isopropyl 2-(1,3-dithiol-2-ylidene)-2-[N-(3-methoxyphenyl)carbamoyl]acetate], 100%.
